BindingDB's records for patent US11873292 (Shanghai Institute of Materia Medica, 2024)

Columns and labels:
[1] = target: Lysine-specific histone demethylase 1A (Homo sapiens, UniProt O60341); test: LSD1 in vitro activity assay
[2] = target: T1, Amine oxidase [flavin-containing] A (Homo sapiens, UniProt P21397); test: MAOA and MAOB In Vitro Activity Assay
T1 sequence (P21397 whole entry): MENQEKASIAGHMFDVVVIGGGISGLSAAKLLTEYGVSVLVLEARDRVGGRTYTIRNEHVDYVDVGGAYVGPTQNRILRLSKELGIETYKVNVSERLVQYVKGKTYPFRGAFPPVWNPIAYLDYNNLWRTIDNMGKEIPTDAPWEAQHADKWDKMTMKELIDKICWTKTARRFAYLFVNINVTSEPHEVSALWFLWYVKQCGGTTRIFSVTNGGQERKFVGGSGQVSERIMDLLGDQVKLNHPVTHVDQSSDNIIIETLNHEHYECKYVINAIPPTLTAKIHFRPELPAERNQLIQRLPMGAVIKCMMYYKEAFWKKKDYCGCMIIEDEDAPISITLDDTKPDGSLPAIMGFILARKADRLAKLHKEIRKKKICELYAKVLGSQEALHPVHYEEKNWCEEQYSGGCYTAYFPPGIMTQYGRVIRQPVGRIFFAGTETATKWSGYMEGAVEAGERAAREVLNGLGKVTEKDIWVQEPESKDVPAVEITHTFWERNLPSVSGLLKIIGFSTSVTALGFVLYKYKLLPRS

[3] = target: T2, Amine oxidase [flavin-containing] B (Homo sapiens, UniProt P27338); test: MAOA and MAOB In Vitro Activity Assay
T2 sequence (P27338 whole entry): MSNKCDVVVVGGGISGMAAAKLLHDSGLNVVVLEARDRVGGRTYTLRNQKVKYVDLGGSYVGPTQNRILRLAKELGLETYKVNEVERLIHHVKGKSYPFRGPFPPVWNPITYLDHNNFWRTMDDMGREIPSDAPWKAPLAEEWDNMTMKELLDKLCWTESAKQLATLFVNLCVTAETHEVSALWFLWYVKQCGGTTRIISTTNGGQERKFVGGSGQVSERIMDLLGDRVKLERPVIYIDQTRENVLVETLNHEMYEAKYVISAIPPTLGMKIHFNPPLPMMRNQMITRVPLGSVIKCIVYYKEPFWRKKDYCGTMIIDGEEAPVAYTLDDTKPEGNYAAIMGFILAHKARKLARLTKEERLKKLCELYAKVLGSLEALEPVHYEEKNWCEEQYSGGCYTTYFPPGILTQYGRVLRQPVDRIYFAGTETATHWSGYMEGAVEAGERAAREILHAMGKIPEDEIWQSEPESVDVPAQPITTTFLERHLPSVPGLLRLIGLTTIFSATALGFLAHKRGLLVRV

For O=S(=O)(c1ccccc1)N1CCc2cc(C3CC3NCc3c[nH]c4ccccc34)ccc21 (trans isomer) [US11873292, Compound A8], the IC50 [1] was 85.1 nM, the IC50 [2] was 81.7 µM and the IC50 [3] was greater than 100 µM.
